Results reported in ChEMBL document CHEMBL1126915, “Solvent-dependent conformation and hydrogen-bonding capacity of cyclosporin A: evidence from partition coefficients and molecular dynamics simulations” (J Med Chem, 1993).

Columns and labels:
Conditions in all cases: octanol/water
[1] = Partition coefficient of compound was measured in heptane/water system
physchem [2] = experiment: physchem
Description: Partition coefficient (logP)

physchem [3] = experiment: physchem; remark: listed apart in the source
Description: Partition coefficient (logP)

| SMILES | Log Phep [1] | logP (physchem [2]) | logP (physchem [3]) |
| --- | --- | --- | --- |
| NC(=O)c1ccc(F)cc1 | -2.34 | 1 | 0.96 |
| NC(=O)c1ccccc1F | -1.47 | 0.5 | 0.64 |
| CC(=O)Nc1ccccc1 [ACETANILIDE] | -1.54 |  |  |
| CC(=O)Nc1ccc(F)cc1 | -1.57 | 1.61 | 1.47 |
| O=[N+]([O-])c1ccc(O)cc1 [P-NITROPHENOL] | -2.11 | 1.85 | 1.77 |
| CC(=O)Nc1ccccc1F | -0.69 | 0.96 | 0.96 |
| O=C1N[C@@H](Cc2ccccc2)C(=O)N[C@H]1Cc1ccccc1 | < -3 | 2.86 | 1.59 |
| Oc1ccccc1 [PHENOL] | -0.82 |  |  |
| NC(=O)c1ccccc1 [BENZAMIDE] | -2.45 |  |  |
| O=C1N[C@H](Cc2ccc(O)cc2)C(=O)N[C@H]1Cc1c[nH]c2ccccc12 | < -3 | 2.19 | 1.05 |
| O=[N+]([O-])c1ccccc1O [NITROPHENOLATE] | 1.04 | 1.85 | 1.68 |
